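The concentration for 50% growth inhibition is given as GI50. At the TGI there is no net growth.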
Legend:
Test in all cases: growth of human tumour cells (NCI), 384-well format
NCI-H23 lung = test system: NCI-H23 lung
KM12 colon = test system: KM12 colon
HS 578T breast = test system: HS 578T breast
HCT-116 colon = test system: HCT-116 colon
HL-60(TB) leukemia = test system: HL-60(TB) leukemia
ACHN renal = test system: ACHN renal
MOLT-4 leukemia = test system: MOLT-4 leukemia
HOP-62 NSCLC = test system: HOP-62 NSCLC
NCI-H322M lung = test system: NCI-H322M lung
NCI-H460 NSCLC = test system: NCI-H460 NSCLC
UO-31 renal = test system: UO-31 renal
MDA-MB-435 melanoma = test system: MDA-MB-435 melanoma
CCRF-CEM leukemia = test system: CCRF-CEM leukemia
OVCAR-8 ovarian = test system: OVCAR-8 ovarian
MDA-MB-468 breast = test system: MDA-MB-468 breast
NCI-H226 lung = test system: NCI-H226 lung
SF-539 CNS = test system: SF-539 CNS
NCI-H522 lung = test system: NCI-H522 lung
SNB-19 CNS = test system: SNB-19 CNS
DU-145 prostate = test system: DU-145 prostate
SR leukemia = test system: SR leukemia
TK-10 renal = test system: TK-10 renal
SF-268 CNS = test system: SF-268 CNS
OVCAR-5 ovarian = test system: OVCAR-5 ovarian
SK-MEL-5 melanoma = test system: SK-MEL-5 melanoma
CAKI-1 renal = test system: CAKI-1 renal
MALME-3M melanoma = test system: MALME-3M melanoma
T-47D breast = test system: T-47D breast
A498 renal = test system: A498 renal
SK-OV-3 ovarian = test system: SK-OV-3 ovarian
IGROV1 ovarian = test system: IGROV1 ovarian
OVCAR-4 ovarian = test system: OVCAR-4 ovarian
RXF 393 renal = test system: RXF 393 renal
HCT-15 colon = test system: HCT-15 colon
UACC-62 melanoma = test system: UACC-62 melanoma
BT-549 breast = test system: BT-549 breast
LOX IMVI melanoma = test system: LOX IMVI melanoma
UACC-257 melanoma = test system: UACC-257 melanoma
786-0 renal = test system: 786-0 renal
SNB-75 CNS = test system: SNB-75 CNS
EKVX NSCLC = test system: EKVX NSCLC
HT29 colon = test system: HT29 colon
U251 glioblastoma = test system: U251 glioblastoma
SK-MEL-28 melanoma = test system: SK-MEL-28 melanoma
COLO 205 colon = test system: COLO 205 colon
M14 melanoma = test system: M14 melanoma
A549 NSCLC = test system: A549 NSCLC
RPMI-8226 leukemia = test system: RPMI-8226 leukemia
OVCAR-3 ovarian = test system: OVCAR-3 ovarian
SF-295 CNS = test system: SF-295 CNS
SN12C renal = test system: SN12C renal
PC-3 prostate = test system: PC-3 prostate
MDA-MB-231 breast = test system: MDA-MB-231 breast
MCF7 breast = test system: MCF7 breast
SW-620 colon = test system: SW-620 colon

Q: `COc1ccc2[nH]c3c(c2c1)CCN[C@]31CS[C@@H]2c3c(OC(C)=O)c(C)c4c(c3[C@H](COC1=O)N1[C@@H]2[C@H]2c3c(cc(C)c(OC)c3O)C[C@@H]([C@@H]1O)N2C)OCO4` was tested. Which GI50 (NCI-H23 lung) did it give?
A: 0.0752 nM

Q: And the TGI (NCI-H23 lung)?
A: 0.194 nM

Q: And the GI50 (KM12 colon)?
A: 1.44 nM

Q: What about the TGI (KM12 colon) of the same compound?
A: 3.96 nM

Q: What about the GI50 (HS 578T breast) of the same compound?
A: 0.13 nM

Q: What about the TGI (HS 578T breast) of the same compound?
A: 0.372 nM

Q: What about the GI50 (HCT-116 colon) of the same compound?
A: 0.16 nM

Q: What about the GI50 (HL-60(TB) leukemia) of the same compound?
A: 0.0524 nM

Q: And the TGI (HL-60(TB) leukemia)?
A: 0.0982 nM

Q: And the GI50 (ACHN renal)?
A: 0.435 nM

Q: What about the TGI (ACHN renal) of the same compound?
A: 1.61 nM

Q: What about the GI50 (MOLT-4 leukemia) of the same compound?
A: 0.0141 nM

Q: What about the TGI (MOLT-4 leukemia) of the same compound?
A: 0.0474 nM

Q: And the GI50 (HOP-62 NSCLC)?
A: 0.0549 nM

Q: What about the TGI (HOP-62 NSCLC) of the same compound?
A: 0.115 nM

Q: And the GI50 (NCI-H322M lung)?
A: 0.522 nM

Q: And the TGI (NCI-H322M lung)?
A: 1.29 nM

Q: What about the GI50 (NCI-H460 NSCLC) of the same compound?
A: 0.104 nM

Q: And the TGI (NCI-H460 NSCLC)?
A: 0.446 nM

Q: And the GI50 (UO-31 renal)?
A: 1.68 nM

Q: And the TGI (UO-31 renal)?
A: 3.1 nM

Q: What about the GI50 (MDA-MB-435 melanoma) of the same compound?
A: 0.594 nM

Q: What about the TGI (MDA-MB-435 melanoma) of the same compound?
A: 1.1 nM

Q: And the GI50 (CCRF-CEM leukemia)?
A: 0.0192 nM

Q: What about the TGI (CCRF-CEM leukemia) of the same compound?
A: 0.0348 nM

Q: And the GI50 (OVCAR-8 ovarian)?
A: 0.126 nM

Q: And the TGI (OVCAR-8 ovarian)?
A: 0.487 nM

Q: What about the GI50 (MDA-MB-468 breast) of the same compound?
A: 0.0569 nM

Q: And the TGI (MDA-MB-468 breast)?
A: 0.119 nM

Q: And the GI50 (NCI-H226 lung)?
A: 0.109 nM

Q: And the TGI (NCI-H226 lung)?
A: 0.452 nM

Q: And the GI50 (SF-539 CNS)?
A: 0.0587 nM

Q: What about the TGI (SF-539 CNS) of the same compound?
A: 0.111 nM

Q: And the GI50 (NCI-H522 lung)?
A: 0.0779 nM

Q: What about the TGI (NCI-H522 lung) of the same compound?
A: 0.261 nM

Q: What about the GI50 (SNB-19 CNS) of the same compound?
A: 0.124 nM

Q: And the GI50 (DU-145 prostate)?
A: 0.196 nM

Q: What about the TGI (DU-145 prostate) of the same compound?
A: 0.367 nM

Q: What about the GI50 (SR leukemia) of the same compound?
A: 0.0186 nM

Q: What about the TGI (SR leukemia) of the same compound?
A: 0.0575 nM

Q: And the GI50 (TK-10 renal)?
A: 2.64 nM

Q: What about the TGI (TK-10 renal) of the same compound?
A: 7.17 nM

Q: What about the GI50 (SF-268 CNS) of the same compound?
A: 0.0705 nM

Q: What about the TGI (SF-268 CNS) of the same compound?
A: 0.186 nM

Q: What about the GI50 (OVCAR-5 ovarian) of the same compound?
A: 0.51 nM

Q: And the GI50 (SK-MEL-5 melanoma)?
A: 0.0874 nM

Q: What about the TGI (SK-MEL-5 melanoma) of the same compound?
A: 0.243 nM

Q: And the GI50 (CAKI-1 renal)?
A: 0.156 nM

Q: And the TGI (CAKI-1 renal)?
A: 6.95 nM

Q: What about the GI50 (MALME-3M melanoma) of the same compound?
A: 0.0967 nM

Q: And the TGI (MALME-3M melanoma)?
A: 0.273 nM

Q: What about the GI50 (T-47D breast) of the same compound?
A: 0.41 nM

Q: What about the TGI (T-47D breast) of the same compound?
A: 2.56 nM

Q: What about the GI50 (A498 renal) of the same compound?
A: 1.16 nM

Q: And the TGI (A498 renal)?
A: 2.96 nM

Q: And the GI50 (SK-OV-3 ovarian)?
A: 0.181 nM

Q: What about the TGI (SK-OV-3 ovarian) of the same compound?
A: 9.81 nM

Q: And the GI50 (IGROV1 ovarian)?
A: 0.416 nM

Q: And the TGI (IGROV1 ovarian)?
A: 7.86 nM

Q: And the GI50 (OVCAR-4 ovarian)?
A: 2.59 nM

Q: And the TGI (OVCAR-4 ovarian)?
A: 5.77 nM

Q: And the GI50 (RXF 393 renal)?
A: 0.0493 nM

Q: What about the TGI (RXF 393 renal) of the same compound?
A: 0.111 nM

Q: What about the GI50 (HCT-15 colon) of the same compound?
A: 0.414 nM

Q: What about the TGI (HCT-15 colon) of the same compound?
A: 1.06 nM

Q: And the GI50 (UACC-62 melanoma)?
A: 0.0874 nM

Q: And the TGI (UACC-62 melanoma)?
A: 0.31 nM

Q: What about the GI50 (BT-549 breast) of the same compound?
A: 0.0503 nM

Q: What about the TGI (BT-549 breast) of the same compound?
A: 0.113 nM

Q: What about the GI50 (LOX IMVI melanoma) of the same compound?
A: 0.0682 nM

Q: And the TGI (LOX IMVI melanoma)?
A: 0.18 nM

Q: What about the GI50 (UACC-257 melanoma) of the same compound?
A: 0.428 nM

Q: And the TGI (UACC-257 melanoma)?
A: 0.848 nM

Q: And the GI50 (786-0 renal)?
A: 0.194 nM

Q: And the TGI (786-0 renal)?
A: 0.348 nM

Q: And the GI50 (SNB-75 CNS)?
A: 0.0809 nM

Q: And the TGI (SNB-75 CNS)?
A: 0.224 nM

Q: And the GI50 (EKVX NSCLC)?
A: 0.649 nM

Q: And the TGI (EKVX NSCLC)?
A: 1.49 nM

Q: And the GI50 (HT29 colon)?
A: 0.123 nM

Q: And the TGI (HT29 colon)?
A: 0.42 nM

Q: And the GI50 (U251 glioblastoma)?
A: 0.112 nM

Q: And the TGI (U251 glioblastoma)?
A: 0.554 nM

Q: And the GI50 (SK-MEL-28 melanoma)?
A: 0.44 nM

Q: And the TGI (SK-MEL-28 melanoma)?
A: 0.877 nM

Q: What about the GI50 (COLO 205 colon) of the same compound?
A: 0.432 nM

Q: What about the TGI (COLO 205 colon) of the same compound?
A: 1.06 nM

Q: What about the GI50 (M14 melanoma) of the same compound?
A: 0.0827 nM

Q: And the TGI (M14 melanoma)?
A: 0.191 nM

Q: What about the GI50 (A549 NSCLC) of the same compound?
A: 0.65 nM

Q: What about the TGI (A549 NSCLC) of the same compound?
A: 2.91 nM

Q: And the GI50 (RPMI-8226 leukemia)?
A: 0.0579 nM

Q: And the TGI (RPMI-8226 leukemia)?
A: 0.108 nM

Q: What about the GI50 (OVCAR-3 ovarian) of the same compound?
A: 0.189 nM

Q: And the TGI (OVCAR-3 ovarian)?
A: 0.863 nM

Q: What about the GI50 (SF-295 CNS) of the same compound?
A: 0.0573 nM

Q: What about the TGI (SF-295 CNS) of the same compound?
A: 0.115 nM

Q: And the GI50 (SN12C renal)?
A: 0.107 nM

Q: And the TGI (SN12C renal)?
A: 0.422 nM

Q: What about the GI50 (PC-3 prostate) of the same compound?
A: 0.337 nM

Q: And the TGI (PC-3 prostate)?
A: 2.85 nM

Q: What about the GI50 (MDA-MB-231 breast) of the same compound?
A: 0.786 nM

Q: And the TGI (MDA-MB-231 breast)?
A: 2.42 nM

Q: What about the GI50 (MCF7 breast) of the same compound?
A: 0.12 nM

Q: And the TGI (MCF7 breast)?
A: 5.95 nM

Q: And the GI50 (SW-620 colon)?
A: 0.502 nM

Q: And the TGI (SW-620 colon)?
A: 6.77 nM

— PubChem BioAssay (NCI)
